Measured values as given in PubChem BioAssay (NCI).
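How tested: cells in 96-well plates exposed to compound for 48 hours at five concentrations. Here, GI50 denotes the concentration required for 50% inhibition of growth. The concentration for full growth arrest is given as TGI.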

Assays:
Assay in all cases: inhibition of tumour cell growth, NCI panel, 48 h
[1] = tested on: HCC-2998 colon
[2] = tested on: IGROV1 ovarian
[3] = tested on: TK-10 renal
[4] = tested on: SNB-19 CNS
[5] = tested on: HL-60(TB) leukemia
[6] = tested on: A498 renal
[7] = tested on: NCI-H23 lung
[8] = tested on: DU-145 prostate
[9] = tested on: NCI/ADR-RES ovarian
[10] = tested on: HT29 colon
[11] = tested on: OVCAR-4 ovarian
[12] = tested on: SK-MEL-28 melanoma
[13] = tested on: OVCAR-3 ovarian
[14] = tested on: MCF7 breast
[15] = tested on: UO-31 renal
[16] = tested on: NCI-H226 lung
[17] = tested on: 786-0 renal
[18] = tested on: HCT-15 colon
[19] = tested on: KM12 colon
[20] = tested on: MDA-MB-435
[21] = tested on: A549 NSCLC
[22] = tested on: MOLT-4 leukemia
[23] = tested on: SF-295 CNS
[24] = tested on: HOP-62 NSCLC
[25] = tested on: MDA-MB-231 breast
[26] = tested on: NCI-H460 lung
[27] = tested on: UACC-257 melanoma
[28] = tested on: COLO 205 colon
[29] = tested on: NCI-H522 lung
[30] = tested on: MALME-3M melanoma
[31] = tested on: SR leukemia
[32] = tested on: SN12C renal
[33] = tested on: SF-539 CNS
[34] = tested on: T-47D breast
[35] = tested on: CCRF-CEM leukemia
[36] = tested on: M14 melanoma
[37] = tested on: OVCAR-8 ovarian
[38] = tested on: CAKI-1 renal
[39] = tested on: K-562 leukemia
[40] = tested on: HOP-92 NSCLC
[41] = tested on: UACC-62 melanoma
[42] = tested on: SNB-75 CNS
[43] = tested on: ACHN renal
[44] = tested on: SK-MEL-2 melanoma
[45] = tested on: LOX IMVI melanoma
[46] = tested on: EKVX NSCLC
[47] = tested on: OVCAR-5 ovarian
[48] = tested on: SK-OV-3 ovarian
[49] = tested on: BT-549 breast
[50] = tested on: RXF 393 renal
[51] = tested on: PC-3 prostate
[52] = tested on: U251 CNS
[53] = tested on: SW-620 colon
[54] = tested on: HCT-116 colon
[55] = tested on: SK-MEL-5 melanoma
[56] = tested on: SF-268 CNS
[57] = tested on: RPMI-8226 leukemia

## COc1ccc([C@@H]2C(=O)N(c3cc(OC)c(OC)c(OC)c3)[C@H]2c2ccc(OC)c(O)c2)cc1
[1]
  GI50: 259 nM
  TGI: 18500 nM
[2]
  GI50: 63 nM
  TGI: > 100000 nM
[3]
  GI50: 15100 nM
  TGI: > 100000 nM
[4]
  GI50: 284 nM
  TGI: > 100000 nM
[5]
  GI50: 21.4 nM
  TGI: 52.7 nM
[6]
  GI50: 8560 nM
  TGI: > 100000 nM
[7]
  GI50: 47 nM
  TGI: 44100 nM
[8]
  GI50: 59.6 nM
  TGI: > 100000 nM
[9]
  GI50: 24 nM
  TGI: 59.8 nM
[10]
  GI50: 43.1 nM
  TGI: 11500 nM
[11]
  GI50: 3980 nM
  TGI: > 100000 nM
[12]
  GI50: 13400 nM
  TGI: > 100000 nM
[13]
  GI50: 40.8 nM
  TGI: 28900 nM
[14]
  GI50: 38.1 nM
  TGI: > 100000 nM
[15]
  GI50: 134 nM
  TGI: 23700 nM
[16]
  GI50: 36.2 nM
  TGI: 37200 nM
[17]
  GI50: 76.2 nM
  TGI: > 100000 nM
[18]
  GI50: 34.8 nM
  TGI: > 100000 nM
[19]
  GI50: 45.9 nM
  TGI: > 100000 nM
[20]
  GI50: 30.1 nM
  TGI: > 100000 nM
[21]
  GI50: 43.8 nM
  TGI: > 100000 nM
[22]
  GI50: 38.2 nM
  TGI: 31600 nM
[23]
  GI50: 32.4 nM
  TGI: 18900 nM
[24]
  GI50: 41.1 nM
  TGI: > 100000 nM
[25]
  GI50: 36.7 nM
  TGI: > 100000 nM
[26]
  GI50: 36 nM
  TGI: > 100000 nM
[27]
  GI50: 13000 nM
  TGI: > 100000 nM
[28]
  GI50: 54.6 nM
  TGI: 205 nM
[29]
  GI50: 20.9 nM
  TGI: 58 nM
[30]
  GI50: 61 nM
  TGI: 40800 nM
[31]
  GI50: 31.6 nM
  TGI: 25700 nM
[32]
  GI50: 41.3 nM
  TGI: > 100000 nM
[33]
  GI50: 22.1 nM
  TGI: 56.7 nM
[34]
  GI50: 24300 nM
  TGI: > 100000 nM
[35]
  GI50: 35.6 nM
  TGI: > 100000 nM
[36]
  GI50: 69.6 nM
  TGI: 48100 nM
[37]
  GI50: 33.2 nM
  TGI: 27800 nM
[38]
  GI50: 68.1 nM
  TGI: > 100000 nM
[39]
  GI50: 30.6 nM
  TGI: 30500 nM
[40]
  GI50: 6020 nM
  TGI: 48800 nM
[41]
  GI50: 82.5 nM
  TGI: 42300 nM
[42]
  GI50: 44.4 nM
  TGI: 51700 nM
[43]
  GI50: 84.7 nM
  TGI: 32400 nM
[44]
  GI50: 48.3 nM
  TGI: > 100000 nM
[45]
  GI50: 37.6 nM
  TGI: > 100000 nM
[46]
  GI50: 49.8 nM
  TGI: > 100000 nM
[47]
  GI50: 49.8 nM
  TGI: > 100000 nM
[48]
  GI50: 32.5 nM
  TGI: 65200 nM
[49]
  GI50: 55.5 nM
  TGI: 3200 nM
[50]
  GI50: 41.7 nM
  TGI: 51100 nM
[51]
  GI50: 200 nM
  TGI: > 100000 nM
[52]
  GI50: 34 nM
  TGI: > 100000 nM
[53]
  GI50: 42.8 nM
  TGI: > 100000 nM
[54]
  GI50: 35.3 nM
  TGI: > 100000 nM
[55]
  GI50: 35.4 nM
  TGI: 161 nM
[56]
  GI50: 300 nM
  TGI: > 100000 nM
[57]
  GI50: 49.2 nM
  TGI: 12000 nM
